These results are taken from ChEMBL document CHEMBL3639096, “Bivalent inhibitors of IAP proteins and therapeutic methods using the same” (2014).

In assay [1] the target is E3 ubiquitin-protein ligase XIAP (Homo sapiens, UniProt P98170). In words: (§1) For cIAP-1 BIR3 and cIAP-2 BIR3 assays, a fluorescently labeled Smac mimetic (Smac-2F) was used as the fluorescent probe. The Kd values of Smac-2F to cIAP-1 BIR3 and cIAP-2 BIR3 were determined by monitoring the total fluorescence polarization of mixtures composed with the fluorescent probe at a fixed concentration and proteins with increasing concentrations up to full saturation. Fluorescence polarization values were measured using the Infinite M-1000 plate reader (Tecan U.S., Research Triangle Park, N.C.) in Microfluor 2 96-well, black, round-bottom plates (Thermo Scientific). To each well, 1 nM of SMAC-2F and increasing concentrations of protein were added to a final volume of 125 ul in the assay buffer (100 mM potassium phosphate, pH 7.5).

Assay [2] deals with Baculoviral IAP repeat-containing protein 2 (Homo sapiens, UniProt Q13490). Described as §1.
For assay [3], the target named is Baculoviral IAP repeat-containing protein 3 (Homo sapiens, UniProt Q13489). The description is as §1.

pIC50: −log10 of the molar value.

On to `CN[C@@H](C)C(=O)N[C@H]1CN(C(=O)NCCCCCCNC(=O)N2CC[C@H]3CC[C@@H](C(=O)N[C@H]4CCC[C@H]4c4ccccc4)N3C(=O)[C@@H](NC(=O)[C@H](C)NC)C2)CC[C@H]2CCC(C(=O)N[C@H]3CCC[C@H]3c3ccccc3)N2C1=O` (some centres not stated), for which the results for the pIC50 in assay [1], in assay [2] and in assay [3] were greater than 6.00, greater than 5.52 and greater than 5.52, respectively.

Take `CN[C@@H](C)C(=O)N[C@H]1CN(C(=O)Nc2ccc(CCc3ccc(NC(=O)N4CC[C@H]5CC[C@@H](C(=O)NC(c6ccccc6)c6ccccc6)N5C(=O)[C@@H](NC(=O)[C@H](C)NC)C4)cc3)cc2)CC[C@H]2CCC(C(=O)NC(c3ccccc3)c3ccccc3)N2C1=O` (some centres not stated): the negative-log IC50 (pIC50) in assay [1] was greater than 7.52; in assay [2], greater than 6.52; in assay [3] it was greater than 6.52.

Consider `CN[C@@H](C)C(=O)N[C@H]1CN(C(=O)Nc2ccc(NC(=O)N3CC[C@H]4CC[C@@H](C(=O)N[C@H]5CCC[C@H]5c5ccccc5)N4C(=O)[C@@H](NC(=O)[C@H](C)NC)C3)cc2)CC[C@H]2CC[C@@H](C(=O)N[C@H]3CCC[C@H]3c3ccccc3)N2C1=O`, for which the pIC50 in assay [1], in assay [2] and in assay [3] was greater than 6.00 each time.

Consider `CN[C@@H](C)C(=O)N[C@H]1CN(C(=O)NCCCCCCNC(=O)N2CC[C@H]3CC[C@@H](C(=O)NCCc4ccccc4)N3C(=O)[C@@H](NC(=O)[C@H](C)NC)C2)CC[C@H]2CCC(C(=O)NCCc3ccccc3)N2C1=O` (some centres not stated), for which the pIC50 is greater than 6.00 in assay [1], greater than 6.00 in assay [2] and greater than 5.30 in assay [3].

With `CN[C@@H](C)C(=O)N[C@H]1CN(C(=O)NCCCCCCNC(=O)N2CC[C@H]3CC[C@@H](C(=O)N[C@H]4CC[C@@H]4c4ccccc4)N3C(=O)[C@@H](NC(=O)[C@H](C)NC)C2)CC[C@H]2CCC(C(=O)N[C@H]3CC[C@@H]3c3ccccc3)N2C1=O` (some centres not stated), the negative logarithm of the IC50 (pIC50) in assay [1], in assay [2] and in assay [3] was greater than 6.00 each time.

Turning to `CN[C@@H](C)C(=O)N[C@H]1CN(C(=O)Nc2ccc(NC(=O)N3CC[C@H]4CC[C@@H](C(=O)N[C@H]5C[C@@H]5c5ccccc5F)N4C(=O)[C@@H](NC(=O)[C@H](C)NC)C3)cc2)CC[C@H]2CC[C@@H](C(=O)N[C@H]3C[C@@H]3c3ccccc3F)N2C1=O`, the pIC50 in assay [1], in assay [2] and in assay [3] was greater than 6.00 in each case.

As to `CN[C@@H](C)C(=O)N[C@H]1CN(C(=O)Nc2ccc(NC(=O)N3CC[C@H]4CC[C@@H](C(=O)N[C@H]5C[C@@H]5c5ccc(C(F)(F)F)c(F)c5)N4C(=O)[C@@H](NC(=O)[C@H](C)NC)C3)cc2)CC[C@H]2CC[C@@H](C(=O)N[C@H]3C[C@@H]3c3ccc(C(F)(F)F)c(F)c3)N2C1=O`, the negative-log IC50 (pIC50) in assay [1], in assay [2] and in assay [3] was greater than 5.52 each time.

Take `CN[C@@H](C)C(=O)N[C@H]1CN(C(=O)Nc2ccc(Cc3ccc(NC(=O)N4CC[C@H]5CC[C@@H](C(=O)N[C@H]6C[C@@H]6c6ccccc6)N5C(=O)[C@@H](NC(=O)[C@H](C)NC)C4)cc3)cc2)CC[C@H]2CCC(C(=O)N[C@H]3C[C@@H]3c3ccccc3)N2C1=O` (some centres not stated): the pIC50 is greater than 6.00 in assay [1], greater than 5.52 in assay [2] and greater than 5.52 in assay [3].

As for `CN[C@@H](C)C(=O)N[C@H]1CN(C(=O)NCCCCCCNC(=O)N2CC[C@H]3CC[C@@H](C(=O)NC4Cc5ccccc5C4)N3C(=O)[C@@H](NC(=O)[C@H](C)NC)C2)CC[C@H]2CCC(C(=O)NC3Cc4ccccc4C3)N2C1=O` (some centres not stated), the figures for the pIC50 in assay [1], in assay [2] and in assay [3] were greater than 6.00, greater than 5.00 and greater than 5.30, respectively.
